Assay results taken from patent US20250136558A1, “PYRAZINE COMPOUNDS AS IRREVERSIBLE INHIBITORS OF FLT3” (BIOMEA FUSION, INC., priority 2021, published 2025).
pIC50: −log10 of the molar value.

Experiments:
Format in all cases: cell-based
MOLM-13 = assay: Proliferation inhibition (CellTiter-Glo) in MOLM-13 cells; details: Homo sapiens, 96 h, MOLM-13 AML cells, heterozygous FLT3-ITD, IC50 (4 days)
Outline: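 MOLM-13 human AML cells, heterozygous for FLT3-ITD, were grown in RPMI-1640 with 10% heat-inactivated FBS and 1% Pen-Strep. About 10,000 cells in 200 μL were seeded per well of 96-well plates. After 2 hours, compounds from DMSO stocks were dispensed at eight concentrations in duplicate, with 0.2% DMSO as the untreated control. Viability was read as CellTiter-Glo ATP luminescence, and IC50 was obtained from a four-parameter logistic fit.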

MV-4-11 = assay: Proliferation inhibition (CellTiter-Glo) in MV-4-11 cells; details: Homo sapiens, MV4-11, 96 h, MV-4-11 AML cells, homozygous FLT3-ITD, IC50 (4 days)
Outline: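 MV-4-11 human AML cells (homozygous FLT3-ITD) grown in RPMI-1640 with 10% heat-inactivated FBS and 1% Pen-Strep were seeded at about 10,000 cells per 200 μL in 96 well plates. Two hours later, compounds were dispensed at eight concentrations in duplicate. Viability was measured by CellTiter-Glo luminescence, and IC50 values came from four-parameter logistic non-linear regression against untreated cells (0.2% DMSO).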

K-562 = assay: Proliferation inhibition (CellTiter-Glo) in K-562 cells; details: Homo sapiens, K562, 96 h, K-562 CML cells, no FLT3 mutations, IC50 (4 days)
Outline: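 The CML line […] (ATCC: CRL-3343) was cultured in RPMI-1640 with 10% heat-inactivated FBS and 1% Pen-Strep at 37° C. Cells were seeded at about 10,000 per 200 μL in 96-well plates, and test compound was dispensed 2 hours later at eight concentrations in duplicate. Viability was measured as ATP luminescence with CellTiter-Glo. Untreated cells (0.2% DMSO) defined 100% proliferation, and IC50 values came from four-parameter logistic fits.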

Row | Structure (SMILES) | pIC50 (MOLM-13) | pIC50 (MV-4-11) | pIC50 (K-562)
1 | CCc1nc(C(N)=O)c(Nc2cccc(OCCCNC(=O)[C@H](C)N(C)C(=O)/C=C/CN(C)C)c2)nc1N(C)C [Compound 118, (S,E)-5-(dimethylamino)-3-((3-(3-(2-(4-(dimethylamino)-N-methylbut-2-enamido)propanamido)propoxy)phenyl)amino)-6-ethylpyrazine-2-carboxamide] | 8.00 to 9.00 | > 9.00 | < 6.30
2 | CCc1nc(C(N)=O)c(Nc2cccc(OCCCNC(=O)[C@H](C)N(C)C(=O)/C=C/CN(C)C)c2)nc1NC [Compound 119, (S,E)-3-((3-(3-(2-(4-(dimethylamino)-N-methylbut-2-enamido)propanamido)propoxy)phenyl)amino)-6-ethyl-5 (methylamino)pyrazine-2-carboxamide] | 8.00 to 9.00 | 8.00 to 9.00 | < 6.30
3 | CCc1nc(C(N)=O)c(Nc2cccc(OCCCNC(=O)[C@H](C)N(C)C(=O)/C=C/CN(C)C)c2)nc1OC [Compound 120, (S,E)-3-((3-(3-(2-(4-(dimethylamino)-N-methylbut-2-enamido)propanamido)propoxy)phenyl)amino)-6-ethyl-5-methoxypyrazine-2-carboxamide] | 8.00 to 9.00 | 8.00 to 9.00 | < 6.30
4 | CCc1cnc(Nc2cccc(OCCCNC(=O)[C@H](C)N(C)C(=O)/C=C/CN(C)C)c2)c(C(N)=O)n1 [Compound 121, (S,E)-3-((3-(3-(2-(4-(dimethylamino)-N-methylbut-2-enamido)propanamido)propoxy)phenyl)amino)-6-ethylpyrazine-2-carboxamide] | 6.30 to 7.00 | 7.00 to 8.00 | < 6.30
5 | CCc1nc(C(N)=O)c(Nc2cccc(OCCCNC(=O)[C@H](C)N(C)C(=O)/C=C/CN(C)C)c2)nc1NC(CC)CC [Compound 122, (S,E)-3-((3-(3-(2-(4-(dimethylamino)-N-methylbut-2-enamido)propanamido)propoxy)phenyl)amino)-6-ethyl-5-(pentan-3-ylamino)pyrazine-2-carboxamide] | > 9.00 | > 9.00 | < 6.30
6 | CCc1nc(C(N)=O)c(Nc2cccc(OCCCNC(=O)[C@H](C)N(C)C(=O)/C=C/CN(C)C)c2)nc1NC(C)C [Compound 124, (S,E)-3-((3-(3-(2-(4-(dimethylamino)-N-methylbut-2-enamido)propanamido)propoxy)phenyl)amino)-6-ethyl-5-(isopropylamino)pyrazine-2-carboxamide] | > 9.00 | 8.00 to 9.00 | < 6.30
7 | CCc1nc(C(N)=O)c(Nc2cccc(OCCCNC(=O)[C@H](C)N(C)C(=O)/C=C/CN(C)C)c2)nc1C1CC1 [Compound 125, (S,E)-5-cyclopropyl-3-((3-(3-(2-(4-(dimethylamino)-N-methylbut-2-enamido)propanamido)propoxy)phenyl)amino)-6-ethylpyrazine-2-carboxamide] | 7.00 to 8.00 | 8.00 to 9.00 | < 6.30
8 | CCc1nc(C(N)=O)c(Nc2cccc(OCCCNC(=O)[C@H](C)N(C)C(=O)/C=C/CN(C)C)c2)nc1C [Compound 126, (S,E)-3-((3-(3-(2-(4-(dimethylamino)-N-methylbut-2-enamido)propanamido)propoxy)phenyl)amino)-6-ethyl-5-methylpyrazine-2-carboxamide] | 7.00 to 8.00 | 8.00 to 9.00 | < 6.30
9 | CC#CC(=O)N(C)[C@@H](C)C(=O)NCCCOc1cc(F)cc(Nc2nc(NC3CCOCC3)c(CC)nc2C(N)=O)c1 [Compound 128, (S)-6-ethyl-3-((3-fluoro-5-(3-(2-(N-methylbut-2-ynamido)propanamido)propoxy)phenyl)amino)-5-((tetrahydro-2H-pyran-4-yl)amino)pyrazine-2-carboxamide] | 8.00 to 9.00 | 8.00 to 9.00 | < 6.30
10 | CCc1nc(C(N)=O)c(Nc2cc(CCNC(=O)[C@H](C)N(C)C(=O)C#CCN(C)C)cc(OC)c2)nc1NC1CCOCC1 [Compound 136, (S)-3-((3-(2-(2-(4-(dimethylamino)-N-methylbut-2-ynamido)propanamido)ethyl)-5-methoxyphenyl)amino)-6-ethyl-5-((tetrahydro-2H-pyran-4-yl)amino)pyrazine-2-carboxamide] | 8.00 to 9.00 | > 9.00 | < 6.30
11 | CCc1nc(C(N)=O)c(Nc2cccc(OCCCNC(=O)[C@H](C)N(C)C(=O)/C=C/CN3CC(F)C3)c2)nc1NC1CCOCC1 [Compound 139, (S,E)-6-Ethyl-3-((3-(3-(2-(4-(3-fluoroazetidin-1-yl)-N-methylbut-2-enamido)propanamido)propoxy)phenyl)amino)-5-((tetrahydro-2H-pyran-4-yl)amino)pyrazine-2-carboxamide] | 8.00 to 9.00 | > 9.00 | < 6.30

More lines, now with the values ahead:

Row | pIC50 (MOLM-13) | pIC50 (MV-4-11) | pIC50 (K-562) | Structure (SMILES)
12 | 8.00 to 9.00 | > 9.00 | < 6.30 | CCc1nc(C(N)=O)c(Nc2cccc(OCCCNC(=O)[C@H](C)N(C)C(=O)/C=C/CN(C)C)c2)nc1NC1CCC(F)(F)CC1 [Compound 123, (S,E)-5-((4,4-difluorocyclohexyl)amino)-3-((3-(3-(2-(4-(dimethylamino)-N-methylbut-2-enamido)propanamido)propoxy)phenyl)amino)-6-ethylpyrazine-2-carboxamide]
13 | > 9.00 | > 9.00 | < 6.30 | CCc1nc(C(N)=O)c(Nc2cc(F)cc(OCCCNC(=O)[C@H](C)N(C)C(=O)/C=C/CN(C)C)c2)nc1NC1CCOCC1 [Compound 129, (S,E)-3-((3-(3-(2-(4-(Dimethylamino)-N-methylbut-2-enamido)propanamido)propoxy)-5-fluorophenyl)amino)-6-ethyl-5-((tetrahydro-2H-pyran-4-yl)amino)pyrazine-2-carboxamide]
14 | 7.00 to 8.00 | 8.00 to 9.00 | < 6.30 | C[C@@H](C(=O)NCCCOc1cccc(Nc2nc(NC3CCOCC3)cnc2C(N)=O)c1)N(C)C(=O)/C=C/CN(C)C [Compound 130, (S,E)-3-((3-(3-(2-(4-(dimethylamino)-N-methylbut-2-enamido)propanamido)propoxy)phenyl)amino)-5-((tetrahydro-2H-pyran-4-yl)amino)pyrazine-2-carboxamide]
15 | 7.00 to 8.00 | 8.00 to 9.00 | < 6.30 | CCc1nc(C(N)=O)c(Nc2cc(CCNC(=O)[C@H](C(C)C)N(C)C(=O)/C=C/CN(C)C)cc(OC)c2)nc1NC1CCOCC1 [Compound 131, (S,E)-3-((3-(2-(2-(4-(dimethylamino)-N-methylbut-2-enamido)-3-methylbutanamido)ethyl)-5-methoxyphenyl)amino)-6-ethyl-5-((tetrahydro-2H-pyran-4-yl)amino)pyrazine-2-carboxamide]
16 | 8.00 to 9.00 | > 9.00 | < 6.30 | Cc1nc(C(N)=O)c(Nc2cccc(OCCCNC(=O)[C@H](C)N(C)C(=O)/C=C/CN(C)C)c2)nc1NC1CCOCC1 [Compound 132, (S,E)-3-((3-(3-(2-(4-(dimethylamino)-N-methylbut-2-enamido)propanamido)propoxy)phenyl)amino)-6-methyl-5-((tetrahydro-2H-pyran-4-yl)amino)pyrazine-2-carboxamide]
17 | 8.00 to 9.00 | > 9.00 | < 6.30 | C[C@@H](C(=O)NCCCOc1cccc(Nc2nc(NC3CCOCC3)c(C3CC3)nc2C(N)=O)c1)N(C)C(=O)/C=C/CN(C)C [Compound 133, (S,E)-6-cyclopropyl-3-((3-(3-(2-(4-(dimethylamino)-N-methylbut-2-enamido)propanamido)propoxy)phenyl)amino)-5-((tetrahydro-2H-pyran-4-yl)amino)pyrazine-2-carboxamide]
18 | 8.00 to 9.00 | > 9.00 | < 6.30 | CCc1nc(C(N)=O)c(Nc2cccc(OCCCNC(=O)[C@H](C)N(C)C(=O)/C=C/CN3CCC3)c2)nc1NC1CCOCC1 [Compound 134, (S,E)-3-((3-(3-(2-(4-(azetidin-1-yl)-N-methylbut-2-enamido)propanamido)propoxy)phenyl)amino)-6-ethyl-5-((tetrahydro-2H-pyran-4-yl)amino)pyrazine-2-carboxamide]
19 | > 9.00 | > 9.00 | < 6.30 | CCc1nc(C(N)=O)c(Nc2cccc(CCNC(=O)[C@H](C)N(C)C(=O)/C=C/CN(C)C)c2)nc1NC1CCOCC1 [Compound 135, (S,E)-3-((3-(2-(2-(4-(dimethylamino)-N-methylbut-2-enamido)propanamido)ethyl)phenyl)amino)-6-ethyl-5-((tetrahydro-2H-pyran-4-yl)amino)pyrazine-2-carboxamide]
20 | 7.00 to 8.00 | 7.00 to 8.00 | < 6.30 | CCc1nc(C(N)=O)c(Nc2cccc(OCCCNC(=O)[C@H](C)N(C)C/C=C/C(=O)N(C)C)c2)nc1NC1CCOCC1 [Compound 140, (S,E)-3-((3-(3-(2-((4-(dimethylamino)-4-oxobut-2-en-1-yl)(methyl)amino)propanamido)propoxy)phenyl)amino)-6-ethyl-5-((tetrahydro-2H-pyran-4-yl)amino)pyrazine-2-carboxamide]
